# Patent US20250034164A1, “NOVEL COMPOUND AND COMPOSITION FOR PREVENTING OR TREATING NEUROINFLAMMATORY BRAIN DISEASES COMPRISING SAME AS ACTIVE INGREDIENT” (KOREA INSTITUTE OF OCEAN SCIENCE & TECHNOLOGY, priority 2021, published 2025)
# pIC50: −log10 of the molar value.
# System: nitric oxide (NO) produced in mouse BV-2 microglia cells stimulated with LPS
# Assay: NO production inhibition in LPS-stimulated BV-2 microglia cells (Griess reagent)
# Assay type: cell-based
# Conditions: LPS 200 ng/ml; for pIC50: mouse BV-2 microglia cells, 24 h, read-out: NO inhibitory activity (IC50 value)
# Procedure: BV-2 microglia cells were cultured in a humidified 5% CO2 incubator at 37° C. using a Dulbecco's modified Eagle medium supplemented with 5% fetal bovine serum and 1% penicillin/streptomycin at 100 units/mL.
# In all experiments, the number of cells was 2.5×10^5 cell/ml, the cells were first treated with each of Compounds of Examples 1 to 25 by concentration (2.5 to 200 μg/ml), and LPS was diluted in medium and used at a concentration of 200 ng/ml. A cytotoxicity test was performed using MTT assay, and the MTT assay was performed by performing NO assay and injecting 30 μl of MTT at a concentration of 0.5 mg/ml into the cells in a microplate. After reacting for 2 hours in the incubator, formazan crystals were dissolved in 100 μl of DMSO, and the absorbance was measured using a Vmax microplate reader (Tencan Co., Switzerland) with a wavelength of 540 nm. In order to quantitatively measure the production of nitric oxide (NO), mouse BV-2 microglia cells were prepared in a microplate (96 well), and added with LPS (200 ng/ml) and Compounds by concentration (2.5 to 200 μg/ml). The cells reacted in an incubator for 24 h, and 50 μl of the supernatant reacted with a Griess reagent (a mixed solution of 1% sulfanilamide, 0.1% N-(1-naphthyl)-ethylenediamine dihydrochloride, and 2.5% H3PO4), and then the absorbance was measured using a Vmax 96-well microplate spectrophotometer with a wavelength of 550 nm.
# In order to analyze the anti-inflammatory efficacy of Compound of Example 1, the concentration inhibitory effect of nitric oxide (NO) produced in mouse BV-2 microglia cells stimulated with LPS (200 ng/ml), a neuroinflammatory factor, was confirmed.
# The neuroinflammation inhibitory effects of Compounds of Examples 2 to 25 were confirmed.
# In order to analyze the anti-inflammatory efficacy of Compound 26 of Chemical Formula 2, the concentration inhibitory effect of nitric oxide (NO) produced in mouse BV-2 microglia cells stimulated with LPS (200 ng/ml), a neuroinflammatory factor, was confirmed. Compound 26 of Chemical Formula 2 was purchased from Santa Cruz biotechnology (CAS 79127-35-8) and the experiment was performed. As a result of treating Compound of Chemical Formula 2 at […], it was confirmed that the amount of nitric oxide (NO) was reduced, as shown in FIG. 37A.
pIC50,SMILES,"amount of nitric oxide (NO) (BV-2 cells, treated at 2.5 to 20 PM (FIG. 37A))"
4.84,"O=C(OCC1=C[C@H]2[C@@H]3C=C[C@H]2C(=O)O[C@@H]3O1)c1ccc(Cl)cc1 [Compound 19, ((1S,4aS,5R,7aS)-8-oxo-1,4a,5,7a-tetrahydro-1,5-(epoxymethano)cyclopenta[c]pyran-3-yl)methyl 4-chlorobenzoate]",–
> 4.70,"O=C1O[C@@H]2OC(CO)=C(Br)[C@H]3[C@@H]2C=C[C@@H]13 [Compound 24, (1S,4aS,5R,7aS)-4-bromo-3-(hydroxymethyl)-1,4a,5,7a-tetrahydro-1,5-(epoxymethano)cyclopenta[c]pyran-8-one]",–
< 4.70,"O=C1O[C@@H]2OC(CBr)=C[C@H]3[C@@H]2C=C[C@@H]13 [Compound 23, (1S,4aS,5R,7aS)-3-(bromomethyl)-1,4a,5,7a-tetrahydro-1,5-(epoxymethano)cyclopenta[c]pyran-8-one]",–
< 4.70,"O=C(OCC1=C[C@H]2[C@@H]3C=C[C@H]2C(=O)O[C@@H]3O1)c1ccc(F)cc1 [Compound 18, ((1S,4aS,5R,7aS)-8-oxo-1,4a,5,7a-tetrahydro-1,5-(epoxymethano)cyclopenta[c]pyran-3-yl)methyl 4-fluorobenzoate]",–
< 4.70,"O=C(OCC1=C[C@H]2[C@@H]3C=C[C@H]2C(=O)O[C@@H]3O1)c1ccc([N+](=O)[O-])cc1 [Compound 21, ((1S,4aS,5R,7aS)-8-oxo-1,4a,5,7a-tetrahydro-1,5-(epoxymethano)cyclopenta[c]pyran-3-yl)methyl 4-nitrobenzoate]",–
< 4.70,"O=C1O[C@@H]2OC(CI)=C[C@H]3[C@@H]2C=C[C@@H]13 [Compound 22, (1S,4aS,5R,7aS)-3-(iodomethyl)-1,4a,5,7a-tetrahydro-1,5-(epoxymethano)cyclopenta[c]pyran-8-one]",–
< 4.70,"O=C(OCC1=C[C@H]2[C@@H]3C=C[C@H]2C(=O)O[C@@H]3O1)c1cc2ccccc2o1 [Compound 17, ((1S,4aS,5R,7aS)-8-oxo-1,4a,5,7a-tetrahydro-1,5-(epoxymethano)cyclopenta[c]pyran-3-yl)methyl benzofuran-2-carboxylate]",–
5.42,"O=C(OCC1=C[C@H]2[C@@H]3C=C[C@H]2C(=O)O[C@@H]3O1)c1cccc2c1-c1ccccc1C2=O [Compound 16, ((1S,4aS,5R,7aS)-8-oxo-1,4a,5,7a-tetrahydro-1,5-(epoxymethano)cyclopenta[c]pyran-3-yl)methyl 9-oxo-9H-fluorene-4-carboxylate]",–
< 4.70,"O=C(OCC1=C[C@H]2[C@@H]3C=C[C@H]2C(=O)O[C@@H]3O1)c1ccc(I)cc1 [Compound 20, ((1S,4aS,5R,7aS)-8-oxo-1,4a,5,7a-tetrahydro-1,5-(epoxymethano)cyclopenta[c]pyran-3-yl)methyl 4-iodobenzoate]",–
< 4.70,"O=C1O[C@@H]2OC(CCl)=C[C@H]3[C@@H]2C=C[C@@H]13 [Compound 25, (1S,4aS,5R,7aS)-3-(chloromethyl)-1,4a,5,7a-tetrahydro-1,5-(epoxymethano)cyclopenta[c]pyran-8-one]",–

# More lines, now with the values behind:
SMILES,pIC50,"amount of nitric oxide (NO) (BV-2 cells, treated at 2.5 to 20 PM (FIG. 37A))"
"Cc1ccc(C(=O)OCC2=C[C@H]3[C@@H]4C=C[C@H]3C(=O)O[C@@H]4O2)cc1 [Compound 10, ((1S,4aS,5R,7aS)-8-oxo-1,4a,5,7a-tetrahydro-1,5-(epoxymethano)cyclopenta[c]pyran-3-yl)methyl 4-methyl benzoate]",< 4.70,–
"CCC(C)C(=O)OCC1=C[C@H]2[C@@H]3C=C[C@H]2C(=O)O[C@@H]3O1 (stereo partly drawn) [Compound 9, ((1S,4aS,5R,7aS)-8-oxo-1,4a,5,7a-tetrahydro-1,5-(epoxymethano)cyclopenta[c]pyran-3-yl)methyl 2-methyl butanoate]",< 4.70,–
"NC(=O)C1=C[C@H]2[C@@H]3C=CC2(O)C(=O)O[C@@H]3O1 (stereo in doubt) [Compound 26, (1S,4aS,5R,7aS)-5-hydroxy-8-oxo-1,4a,5,7a-tetrahydro-1,5-(epoxymethano)cyclopenta[c]pyran-3-carboxamide]",–,reduced
"C#CC(=O)OCC1=C[C@H]2[C@@H]3C=C[C@H]2C(=O)O[C@@H]3O1 [Compound 14, ((1S,4aS,5R,7aS)-8-oxo-1,4a,5,7a-tetrahydro-1,5-(epoxymethano)cyclopenta[c]pyran-3-yl)methyl propiolate]",5.85,–
"C#CC/N=C/C1=C[C@H]2[C@@H]3C=C[C@H]2C(=O)O[C@@H]3O1 [Compound 15, (1S,4aS,5R,7aS)-3-((E)-(prop-2-yn-1-ylimino)methyl)-1,4a,5,7a-tetrahydro-1,5-(epoxymethano)cyclopenta[c]pyran-8-one]",4.91,–
"CC(=O)OCC1=C[C@H]2[C@@H]3C=C[C@H]2C(=O)O[C@@H]3O1 [Compound 2, ((1S,4aS,5R,7aS)-8-oxo-1,4a,5,7a-tetrahydro-1,5-(epoxymethano)cyclopenta[c]pyran-3-yl)methyl acetate]",< 4.70,–
"O=C(OCC1=C[C@H]2[C@@H]3C=C[C@H]2C(=O)O[C@@H]3O1)c1ccc2ccccc2c1 [Compound 13, ((1S,4aS,5R,7aS)-8-oxo-1,4a,5,7a-tetrahydro-1,5-(epoxymethano)cyclopenta[c]pyran-3-yl)methyl 2-naphthoate]",< 4.70,–
"C=CCCCCCCCCC(=O)OCC1=C[C@H]2[C@@H]3C=C[C@H]2C(=O)O[C@@H]3O1 [Compound 8, ((1S,4aS,5R,7aS)-8-oxo-1,4a,5,7a-tetrahydro-1,5-(epoxymethano)cyclopenta[c]pyran-3-yl)methylundec-10-enoate]",< 4.70,–
"COCC1=C[C@H]2[C@@H]3C=C[C@H]2C(=O)O[C@@H]3O1 [Compound 3, (1S,4aS,5R,7aS)-3-(methoxymethyl)-1,4a,5,7a-tetrahydro-1,5-(epoxymethano)cyclopenta[c]pyran-8-one]",< 4.70,–
"O=C(OCC1=C[C@H]2[C@@H]3C=C[C@H]2C(=O)O[C@@H]3O1)c1ccc(-c2ccccc2)cc1 [Compound 12, ((1S,4aS,5R,7aS)-8-oxo-1,4a,5,7a-tetrahydro-1,5-(epoxymethano)cyclopenta[c]pyran-3-yl)methyl [1,1′-biphenyl]-4-carboxylate]",< 4.70,–
"O=C(O)C1=C[C@H]2[C@@H]3C=C[C@H]2C(=O)O[C@@H]3O1 [Compound 5, (1S,4aS,5R,7aS)-8-oxo-1,4a,5,7a-tetrahydro-1,5-(epoxymethano)cyclopenta[c]pyran-3-carboxylic acid]",< 4.70,–
"COc1ccc(C(=O)OCC2=C[C@H]3[C@@H]4C=C[C@H]3C(=O)O[C@@H]4O2)cc1 [Compound 11, ((1S,4aS,5R,7aS)-8-oxo-1,4a,5,7a-tetrahydro-1,5-(epoxymethano)cyclopenta[c]pyran-3-yl)methyl 4-methoxybenzoate]",< 4.70,–
"O=C(OCC1=C[C@H]2[C@@H]3C=C[C@H]2C(=O)O[C@@H]3O1)c1ccccc1 [Compound 7, ((1S,4aS,5R,7aS)-8-oxo-1,4a,5,7a-tetrahydro-1,5-(epoxymethano)cyclopenta[c]pyran-3-yl)methyl benzoate]",< 4.70,–
